Experimental data reported in patent US12139481B2, “Compositions comprising macrocycle derivatives incorporating bridged macrocycles and methods of producing and using same” (Southwestern Oklahoma State University, priority 2015, dated 2024).
pIC50: −log10 of the molar value.

What was measured:
[1] = system: Cryptococcus neoformans ATCC 90113; test: Antimicrobial microdilution assay against Cryptococcus neoformans (modified CLSI/NCCLS, optical density); type: cell-based
Summary of the method: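 Broth microdilution (modified CLSI) in RPMI pH 6.0, samples serially diluted in 20% DMSO/saline and tested in duplicate, growth followed by OD630 before and after incubation. MFC is the lowest concentration giving no growth when 5 μL from clear wells is plated on agar.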

C. glabrata ATCC 90030 = test: Antifungal broth dilution assay against C. glabrata (modified CLSI); type: cell-based, Candida glabrata; conditions: for C. glabrata IC50 / pIC50: in vitro; for pIC50: converted with molecular weight; for X more potent than Amphotericin B: molar IC50 ratio versus amphotericin B
Summary of the method: (§1)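 Modified CLSI broth microdilution with OD monitoring before and after incubation at 35 °C: Candida in RPMI 1640/MOPS pH 6.0, 1.5×10^3 CFU/ml, 46-50 h; Staphylococcus in cation-adjusted Mueller-Hinton pH 7.3, 5.0×10^5 CFU/ml, 16-20 h. IC50 from curve fit; MIC is the lowest concentration with no growth; MFC/MBC from subculture.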

[2] = system: Staphylococcus aureus ATCC 29213; test: Antibacterial broth dilution assay against S. aureus (modified CLSI); type: cell-based; conditions: for S. aureus IC50 / pIC50: in vitro; for pIC50: converted with molecular weight; for X more potent than ciprofloxacen: molar IC50 ratio versus ciprofloxacen
Summary of the method: as §1

[3] = system: methicillin-resistant S. aureus ATCC 33591 (MRS); test: Antibacterial broth dilution assay against MRSA (modified CLSI); type: cell-based, Staphylococcus aureus; conditions: for MRSa IC50 / pIC50: in vitro; for pIC50: converted with molecular weight; for X more potent than ciprofloxacen: molar IC50 ratio versus ciprofloxacen
Experimental: General Experimental Procedures. All organisms were obtained from the American Type Culture Collection (Manassas, VA) and include the fungi Candida albicans ATCC 90028, C. glabrata ATCC 90030, C. krusei ATCC 6258, and Cryptococcus neoformans ATCC 90113, and the bacteria Staphylococcus aureus ATCC 29213 and methicillin-resistant S. aureus ATCC 33591 (MRS). All organisms were tested using modified versions of the CLSI (formerly NCCLS) methods. For all organisms, optical density was used to monitor growth (NCCLS, Reference Method for Broth Dilution Antifungal Susceptibility Testing of Yeasts; Approved Standard M27-A2. National Committee on Clinical Laboratory Standards, 2002 22 (15); and NCCLS, Methods for Dilution Antimicrobial Susceptibility Tests for Bacteria that Grow Aerobically; Approved Standard, Seventh Edition M7-A7. National Committee on Clinical Laboratory Standards, 2006. 26(2)).
Samples (dissolved in DMSO) were serially-diluted in 20% DMSO/saline and transferred (10 μL) in duplicate to 96 well flat bottom microplates. Inocula were prepared by correcting the OD630 of microbe suspensions in incubation broth [RPMI 1640/0.2% dextrose/0.03% glutamine/MOPS @ pH 6.0 (Cellgro) for Candida spp., Sabouraud Dextrose for C. neoformans, and cation-adjusted Mueller-Hinton (Difco) @ pH 7.3 for Staphylococcus spp. to afford an assay volume of […] and final target inocula of: Candida spp. and C. neoformans: 1.5×10^3, and Staphylococcus spp.: 5.0×10^5 CFU/ml. Final sample test concentrations were 1/100th the DMSO stock concentration. […] All organisms were read at either 530 nm using the Biotek Powerwave XS plate reader (Bio-Tek Instruments, Vermont) prior to and after incubation: Candida spp. at 35° C. for 46-50 h, Staphylococcus spp. at 35° C. for 16-20 h, and C. neoformans at 35° C. for 70-74 h. IC50s (concentrations that afford 50% inhibition relative to controls) were calculated using XLfit 4.2 software (IDBS, Alameda, CA) using fit model 201. The MIC is defined as the lowest test concentration that allows no detectable growth. Minimum fungicidal or bactericidal concentrations were determined by removing 5 μl from each clear (or blue) well, transferring to fresh media, and incubating as previously mentioned. The MFC/MBC is defined as the lowest test concentration that kills the organism (allows no growth).
Primary Analysis. Samples were tested in duplicate at one test concentration (50 μg/mL), and percent inhibitions were calculated relative to blank and growth controls. Samples showing 50% inhibition in at least one test organism were selected for dose response (Secondary) studies.
Secondary Analysis. Extracts from the Primary Assay, and first-run pure compounds and column fractions were tested in duplicate at 3 test concentrations (5-fold dilutions). Samples dissolved to 20 mg/mL in DMSO were tested at 200, 40, and 8 μg/mL. Samples dissolved to 2 mg/mL in DMSO were tested at 20, 4, and 0.8 μg/mL.

[4] = system: S. mansoni newly transformed schistosomula (NTS); test: In vitro testing on Schistosoma mansoni newly transformed schistosomula (NTS), viability score; type: cell-based; conditions: for IC50: NTS, 72 hours post-incubation
Summary of the method: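 Mechanically transformed S. mansoni (Liberian strain) NTS, cultured overnight, exposed at 100 per well to compound (from 10 mM DMSO stock; ≤1% DMSO controls) at 37 °C, 5% CO2 for 72 h. Viability scored microscopically from 3 (normal activity, intact tegument) to 0 (dead, granulated).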

[5] = system: Plasmodium falciparum D6 clone (Sierra Leon, chloroquine-sensitive); test: In vitro antimalarial assay, chloroquine-sensitive D6 clone; type: cell-based; conditions: D6 clone; for pIC50: converted with molecular weight, read-out: P. falciparum D6 IC50; for X more potent than chloroquine: molar IC50 ratio versus chloroquine
Summary of the method: (§2)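 Parasites grown in type A human RBCs; assay run on infected cell suspension at 2% parasitemia and 2% hematocrit, in duplicate at several concentrations. IC50 taken from dose curves, per the Makler method, with DMSO as vehicle; Vero cytotoxicity run in parallel to derive a selectivity index.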

[6] = system: Plasmodium falciparum W2 clone (Indochina, chloroquine-resistant); test: In vitro antimalarial assay, chloroquine-resistant W2 clone; type: cell-based; conditions: W2 clone; for pIC50: converted with molecular weight, read-out: P. falciparum W2 IC50; for X more potent than chloroquine: molar IC50 ratio versus chloroquine
Summary of the method: as §2

[7] = system: L. donovani promastigotes; test: Antileishmanial Alamar Blue assay on promastigotes; type: cell-based, Leishmania donovani; conditions: for X more potent than Pentamidine: L. donovani, ratio of molar IC50 to Pentamidine; for L. donovani IC50 / pIC50: promastigotes, 48 hours, Alamar Blue; for pIC50: read-out: L. donavani IC50
Summary of the method: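 L. donovani promastigotes in RPMI 1640 with 10% FCS, from 3-day culture, were set at 5×10^5/mL and exposed to compound (50-3.1 μg/mL) for 48 hours at 26° C. Growth read by Alamar Blue fluorescence (ex 544/em 590 nm); IC50 from percent growth versus concentration.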

S. mansoni adult worms = test: In vitro tests on Schistosoma mansoni adult worms, viability score; type: cell-based
Experimental: All assays were prepared in compliance with the laboratory SOP described herein above. Female NMRI mice (age 3 weeks, weight ca. 14 g) were purchased from Charles River (Sulzfeld) or Harlan Laboratories (Blackthorn, United Kingdom). The animals were allowed to adapt for 1 week under controlled conditions (22° C., 50% humidity, 12 hours light, and free access to water and rodent diet) before experimental handling. To obtain adult schistosomes, NMRI mice were infected subcutaneously with 80 to 100 cercariae. After 7 to 8 weeks, the mice were euthanized with CO2, and the worms were collected from the hepatic portal and mesenteric veins. Two pairs of adult worms were placed in each well of a 24-well plate with 2 ml culture medium and the test compound. […] Worms were kept in an incubator at 37° C. and 5% CO2 for up to 72 hours. After 72 hours, worm condition was microscopically evaluated using a scale from 3 (normal activity and no tegument alteration) to 0 (dead, completely granulated). Active compounds progressed into IC50 determination. […] For the in vitro drug sensitivity assays, all viability scores were averaged across replicates and normalized to the average viability scores of the control wells (Microsoft Office Excel 2010). […]

SMILES | C. glabrata IC50 (C. glabrata ATCC 90030) [µg/mL] | pIC50 (C. glabrata ATCC 90030) | X more potent than Amphotericin B (C. glabrata ATCC 90030) | S. aureus IC50 [2] [µg/mL] | pIC50 [2] | X more potent than ciprofloxacen [2] | MRSa IC50 [3] [µg/mL] | pIC50 [3] | X more potent than ciprofloxacen [3] | Effect at 72 h (%) ([4]; NTS S. mansoni, 33 μM) | P. falciparum D6 IC50 [5] [µg/mL] | pIC50 [5] | X more potent than chloroquine [5] | P. falciparum W2 IC50 [6] [µg/mL] | pIC50 [6] | X more potent than chloroquine [6] | X more potent than Pentamidine [7] | L. donovani IC50 [7] [µg/mL] | pIC50 [7] | also measured
CC(=O)[O-].CC(=O)[O-].CN1CCCN2CCN(CCCN(Cc3cccc(CN4CCCN5CCN(C)CCCN(CC5)CC4)c3)CC2)CC1.F[P-](F)(F)(F)(F)F.F[P-](F)(F)(F)(F)F.[Ni+2].[Ni+2] [CDG009, [Ni2(m-CB-Cyclams)(OAc)2][PF6]2] | 5.150 | 5.33 | 0.31 | 6.27 | 5.25 | 0.05 | 5.410 | 5.31 | 0.04 | 0.00 | – | – | – | – | – | – | – | – | – | X more potent than Amphotericin B ([1]; C. neoformans, ratio of molar IC50 to Amphotericin B): 0.07; C. neoformans IC50 ([1]; in vitro, C. neoformans ATCC 90113): 3.530 µg/mL; pIC50 ([1]; in vitro, C. neoformans ATCC 90113, read-out: C. neoformans IC50 (mol/L)): 5.50
CN1CCCN2CCN(CCCN(Cc3ccc(CN4CCCN5CCN(C)CCCN(CC5)CC4)cc3)CC2)CC1.[Cl-].[Cl-].[Cl-].[Cl-].[Mn+2].[Mn+2] [JGL16A] | 18.600 | 4.65 | 0.06 | 8.090 | 5.01 | 0.03 | 7.770 | 5.03 | 0.02 | 5.41 | 0.7989 | 6.02 | 0.04 | 0.8002 | 6.02 | 0.71 | – | – | – | –
[Cl-].[Cl-].[Mn+2].c1ccc(CN2CCCN3CCN(CCCN(Cc4ccccc4)CC3)CC2)cc1 [NS06, Mn(Bn2Bcyclam)Cl2] | – | – | – | 2.310 | 5.36 | 0.06 | 1.510 | 5.55 | 0.07 | 81.08 | 0.0838 | 6.80 | 0.23 | 0.0674 | 6.90 | 5.36 | 0.13 | 21.99 | 4.38 | –
CN1CCCN2CCN(CCCN(Cc3ccccc3)CC2)CC1.[Cl-].[Cl-].[Fe+2] [NS12] | – | – | – | – | – | – | – | – | – | 100.00 | 0.1371 | 6.52 | 0.12 | 0.1164 | 6.59 | 2.67 | – | – | – | Effect at 72 h (%) ([4]; NTS S. mansoni at 10 μM): 100.00%; IC50 [4]: 6.69 µM; Effect at 72 h (%) (S. mansoni adult worms; adult S. mansoni at 10 μM, 72 h): 2.08%
[Cl-].[Cl-].[Mn+2].c1ccc(CN2CCN3CCN(CC2)CCN(Cc2ccccc2)CC3)cc1 [NS29, Mn(Bn2Bcyclen)Cl2] | – | – | – | 5.880 | 4.93 | 0.02 | 5.750 | 4.94 | 0.02 | 43.24 | 0.1337 | 6.58 | 0.14 | 0.2747 | 6.26 | 1.25 | 0.35 | 7.70 | 4.82 | –
O=C(C1CCCCC1)N1CC(=O)N2CCc3ccccc3C2C1 (stereo not shown) [Praziquantel, reference compound] | – | – | – | – | – | – | – | – | – | – | – | – | – | – | – | – | – | – | – | IC50 ([4]; Schistosoma mansoni): 2.2 µM; IC50 (S. mansoni adult worms; Schistosoma mansoni, adult worms, 72 hours post-exposure, read-out: IC50 [μM] Adults): 0.1 µM
